These results are taken from US11643429B2, “Compounds and methods for the treatment of ocular disorders” (Azura Ophthalmics Ltd., priority 2019, dated 2023).

Like-named read-outs stand apart in the source and are kept apart here.

Series [1] in a line: Aqueous Hydrolysis Stability Assay. As to conditions: 50 mM HEPES buffer pH 7.5, read-out: T1/2 Aq Stability. In kind it is physicochemical. How it is done: Determination of aqueous stability of the test compounds was performed using HIPLC-MS. A test compound 10 mM stock solution was prepared in DMSO. 10 μl of the DMSO stock solution was dissolved in 990 μl of 50 mM HEPES pH 7.5 buffer or 1:1 (v/v) of Acetonitrile:Water to make a 100 μM solution. Final DMSO concentration was 1%. The solution was kept at room temperature and injected without delay into the LCMS (Waters Xevo TQ-S or Micromass Ultima). Additional injections were performed at appropriate time points. Half-life (T1/2) of the parent conjugate was calculated using the peak area of the parent conjugate at each time point in the linear region of the log-linear plot.

Series [2] can be described thus: Rabbit Cornea Homogenate Stability Assay (Rabbit Cornea Esterase Assay). As to conditions: New Zealand White, 37° C., half-life of parent conjugate. In kind it is in vitro ADME. How it is done: Determining Rabbit Cornea Homogenate stability of the test compounds was performed using HPLC-MS. The assay was performed at two concentrations of Rabbit Cornea Homogenate (0.15 mg/ml and 0.45 mg/ml total protein) so that any hydrolysis observed could be assigned as esterase dependent or not.
Five rabbit corneas (e.g. New Zealand Whites) of approx. 50 mg each were sliced and scraped with a scalpel and tweezers until reduced to small (1-3 mm), thin pieces. These were transferred into a tared vial and accurately weighed, then diluted with 10 volumes aqueous PBS pH7.4
Sample was cooled intermittently on ice and shear homogenized for 3 minutes, then centrifuged for 3 min at 3000 rpm. The supernatant was pipetted off into a vial, and total protein concentration determined at 280 nm. Sample was stored at −78° C.
10 mM Compound stocks were diluted to 100 μM in a 96 deep-well plate: 10 μl of 10 mM Compound stock was added to 990 μl 50 mM HEPES, pH7.5 buffer.
Compounds were further diluted to 10 μM: 100 μl of 100 μM compound was added to 900 μl 50 mM HEPES, pH7.5 buffer.
Esterase homogenate was diluted to 300 ng/μl and 900 ng/μl
A heater shaker was set to 37° C. Into a suitable 96 well plate (Run Plate), 75 μl of 300 or 900 ng/μl esterase homogenate was pipetted into each of the required wells (2 min, 5 min, 10 min, 20 min and 45 min). The plate was sealed and then warmed at 37° C. for 5 min. Another 96 well PCR plate was put on ice (Kill Plate). To this was added 100 μl of MeCN to each well, labelled 0 min 2 min, 5 min, 10 min, 20 min and 45 min. The plate was covered to minimise evaporation. For the T=0 sample only, to the 100 μl cold MeCN stop solution was added 50 μl of 300 or 900 ng/μl esterase homogenate followed by 50 μl of 10 μM compound solution For the remaining timepoints, 75 μl of 10 μM compound solution was added to the Run Plate starting from T=45 min row and ending with T=2 min row. At the appropriate time point, 100 μl of the assay mixture was added to the matching kill plate well containing 100 μl of cold MeCN. Samples were analysed as soon as practicable by LCMS (Waters Xevo TQ-S or Micromass Ultima). Parent conjugate and parent concentrations were determined against appropriate standard response curves and the half-life (T1/2) of the parent conjugate was calculated using the peak area of the parent conjugate at each time point in the linear region of the log-linear plot.

As for `CC[C@H]1OC(=O)[C@H](C)[C@@H](O[C@H]2C[C@@](C)(OC)[C@@H](O)[C@H](C)O2)[C@H](C)[C@@H](O[C@@H]2O[C@H](C)C[C@H](N(C)C)[C@H]2OC(=O)CO)[C@](C)(O)C[C@@H](C)CN(C)[C@H](C)[C@@H](O)[C@]1(C)O` [Compound 1, (2S,3R,4S,6R)-4-(Dimethylamino)-2-(((2R,3S,4R,5R,8R,10R,11R,12S,13S,14R)-2-ethyl-3,4,10-trihydroxy-13-(((2R,4R,5S,6S)-5-hydroxy-4-methoxy-4,6-dimethyltetrahydro-2H-pyran-2-yl)oxy)-3,5,6,8,10,12,14-heptamethyl-15-oxo-1-oxa-6-azacyclopentadecan-11-yl)oxy)-6-methyltetrahydro-2H-pyran-3-yl 2-hydroxyacetate], the half-life at 100 µM in series [1] (ND, estimated, in HEPES pH 7.5) was below 3 min.

With `CC[C@H]1OC(=O)[C@H](C)[C@@H](O[C@H]2C[C@@](C)(OC)[C@@H](O)[C@H](C)O2)[C@H](C)[C@@H](O[C@@H]2O[C@H](C)C[C@H](N(C)C)[C@H]2OC(=O)[C@@H](C)O)[C@](C)(O)C[C@@H](C)CN(C)[C@H](C)[C@@H](O)[C@]1(C)O` [Compound 2, (2S,3R,4S,6R)-4-(Dimethylamino)-2-(((2R,3S,4R,5R,8R,10R,11R,12S,13S,14R)-2-ethyl-3,4,10-trihydroxy-13-(((2R,4R,5S,6S)-5-hydroxy-4-methoxy-4,6-dimethyltetrahydro-2H-pyran-2-yl)oxy)-3,5,6,8,10,12,14-heptamethyl-15-oxo-1-oxa-6-azacyclopentadecan-11-yl)oxy)-6-methyltetrahydro-2H-pyran-3-yl (R)-2-hydroxypropanoate], the half-life at 100 µM in series [1] (HEPES pH 7.5, room temperature) was below 3 min.

On to `CC[C@H]1OC(=O)[C@H](C)[C@@H](O[C@H]2C[C@@](C)(OC)[C@@H](O)[C@H](C)O2)[C@H](C)[C@@H](O[C@@H]2O[C@H](C)C[C@H](N(C)C)[C@H]2OC(=O)Cc2ccc(OC)cc2)[C@](C)(O)C[C@@H](C)CN(C)[C@H](C)[C@@H](O)[C@]1(C)O` [Compound 3, (2S,3R,4S,6R)-4-(Dimethylamino)-2-(((2R,3S,4R,5R,8R,10R,11R,12S,13S,14R)-2-ethyl-3,4,10-trihydroxy-13-(((2R,4R,5S,6S)-5-hydroxy-4-methoxy-4,6-dimethyltetrahydro-2H-pyran-2-yl)oxy)-3,5,6,8,10,12,14-heptamethyl-15-oxo-1-oxa-6-azacyclopentadecan-1-yl)oxy)-6-methyltetrahydro-2H-pyran-3-yl 2-(4-methoxyphenyl)acetate], for which the half-life at 5 µM in series [2] (pH 7.5, Rabbit Cornea Homogenate 0.15 mg/ml total protein, read-out: T1/2 Esterase (min) (0.15 mg/ml Homogenate)) was determined as 35 min; in series [2] (pH 7.5, Rabbit Cornea Homogenate 0.45 mg/ml total protein, read-out: T1/2 Esterase (min) (0.45 mg/ml Homogenate)) it was 39 min. In addition, the half-life at 100 µM in series [1] (HEPES pH 7.5, room temperature) amounted to 42 min.

Regarding `CC[C@H]1OC(=O)[C@H](C)[C@@H](O[C@H]2C[C@@](C)(OC)[C@@H](O)[C@H](C)O2)[C@H](C)[C@@H](O[C@@H]2O[C@H](C)C[C@H](N(C)C)[C@H]2OC(=O)COCCOCCOCCOCCO)[C@](C)(O)C[C@@H](C)CN(C)[C@H](C)[C@@H](O)[C@]1(C)O` [Compound 4, (2S,3R,4S,6R)-4-(Dimethylamino)-2-(((2R,3S,4R,5R,8R,10R,11R,12S,13S,14R)-2-ethyl-3,4,10-trihydroxy-13-(((2R,4R,5S,6S)-5-hydroxy-4-methoxy-4,6-dimethyltetrahydro-2H-pyran-2-yl)oxy)-3,5,6,8,10,12,14-heptamethyl-15-oxo-1-oxa-6-azacyclopentadecan-11-yl)oxy)-6-methyltetrahydro-2H-pyran-3-yl 14-hydroxy-3,6,9,12-tetraoxatetradecanoate], the half-life at 100 µM in series [1] (HEPES pH 7.5, room temperature) was 5.7 min.

`CC[C@H]1OC(=O)[C@H](C)[C@@H](O[C@H]2C[C@@](C)(OC)[C@@H](O)[C@H](C)O2)[C@H](C)[C@@H](O[C@@H]2O[C@H](C)C[C@H](N(C)C)[C@H]2OC(=O)[C@@H](C)OC(=O)[C@H](CS)NC(C)=O)[C@](C)(O)C[C@@H](C)CN(C)[C@H](C)[C@@H](O)[C@]1(C)O` [Compound 6, (R)-1-(((2S,3R,4S,6R)-4-(Dimethylamino)-2-(((2R,3S,4R,5R,8R,10R,11R,12S,13S,14R)-2-ethyl-3,4,10-trihydroxy-13-(((2R,4R,5S,6S)-5-hydroxy-4-methoxy-4,6-dimethyltetrahydro-2H-pyran-2-yl)oxy)-3,5,6,8,10,12,14-heptamethyl-15-oxo-1-oxa-6-azacyclopentadecan-11-yl)oxy)-6-methyltetrahydro-2H-pyran-3-yl)oxy)-1-oxopropan-2-yl acetyl-L-cysteinate]: in series [1] (ND, estimated, in HEPES pH 7.5), the half-life at 100 µM is below 3 min.

As for `CC[C@H]1OC(=O)[C@H](C)[C@@H](O[C@H]2C[C@@](C)(OC)[C@@H](O)[C@H](C)O2)[C@H](C)[C@@H](O[C@@H]2O[C@H](C)C[C@H](N(C)C)[C@H]2OC(=O)[C@H](C)OC(=O)[C@@H](C)O)[C@](C)(O)C[C@@H](C)CN(C)[C@H](C)[C@@H](O)[C@]1(C)O` [Compound 7, (2S,3R,4S,6R)-4-(Dimethylamino)-2-(((2R,3S,4R,5R,8R,10R,11R,12S,13S,14R)-2-ethyl-3,4,10-trihydroxy-13-(((2R,4R,5S,6S)-5-hydroxy-4-methoxy-4,6-dimethyltetrahydro-2H-pyran-2-yl)oxy)-3,5,6,8,10,12,14-heptamethyl-15-oxo-1-oxa-6-azacyclopentadecan-11-yl)oxy)-6-methyltetrahydro-2H-pyran-3-yl(S)-2-(((R)-2-hydroxypropanoyl)oxy)propanoate], the half-life at 100 µM in series [1] (ND, estimated, in HEPES pH 7.5) is below 3 min.

Consider `CC[C@H]1OC(=O)[C@H](C)[C@@H](O[C@H]2C[C@@](C)(OC)[C@@H](O)[C@H](C)O2)[C@H](C)[C@@H](O[C@@H]2O[C@H](C)C[C@H](N(C)C)[C@H]2OC(=O)[C@@H](C)OC(C)=O)[C@](C)(O)C[C@@H](C)CN(C)[C@H](C)[C@@H](O)[C@]1(C)O` [Compound 8, (2S,3R,4S,6R)-4-(Dimethylamino)-2-(((2R,3S,4R,5R,8R,10R,11R,12S,13S,14R)-2-ethyl-3,4,10-trihydroxy-13-(((2R,4R,5S,6S)-5-hydroxy-4-methoxy-4,6-dimethyltetrahydro-2H-pyran-2-yl)oxy)-3,5,6,8,10,12,14-heptamethyl-15-oxo-1-oxa-6-azacyclopentadecan-11-yl)oxy)-6-methyltetrahydro-2H-pyran-3-yl (R)-2-acetoxypropanoate], for which the half-life at 100 µM in series [1] (ND, estimated, in HEPES pH 7.5) is below 3 min.

In the case of `CC[C@H]1OC(=O)[C@H](C)[C@@H](O[C@H]2C[C@@](C)(OC)[C@@H](O)[C@H](C)O2)[C@H](C)[C@@H](O[C@@H]2O[C@H](C)C[C@H](N(C)C)[C@H]2OC(=O)CCCC[C@@H]2CCSS2)[C@](C)(O)C[C@@H](C)CN(C)[C@H](C)[C@@H](O)[C@]1(C)O` [Compound 9, (2S,3R,4S,6R)-4-(Dimethylamino)-2-(((2R,3S,4R,5R,8R,10R,11R,12S,13S,14R)-2-ethyl-3,4,10-trihydroxy-13-(((2R,4R,5S,6S)-5-hydroxy-4-methoxy-4,6-dimethyltetrahydro-2H-pyran-2-yl)oxy)-3,5,6,8,10,12,14-heptamethyl-15-oxo-1-oxa-6-azacyclopentadecan-11-yl)oxy)-6-methyltetrahydro-2H-pyran-3-yl 5-((R)-1,2-dithiolan-3-yl)pentanoate], in series [1] (ND, estimated, in HEPES pH 7.5), the half-life at 100 µM was below 3 min.
